In patent US9359381B2, “Tricyclic compounds for inhibiting the CFTR channel” (Novartis AG, priority 2012, dated 2016):

Molecular target: T1, WT-CFTR channels (Homo sapiens, UniProt P13569)
T1 construct: expressed in transfected cells
Test: IonWorks Quattro CFTR inhibitor assay (whole-cell planar patch clamp)
Format: cell-based
Details: inward current (−100 mV); CHO cells stably expressing WT-CFTR; CFTR activated by 10 μM forskolin; 10 min compound incubation
Description: This assay directly measures the currents associated with chloride flow through CFTR channels whilst either maintaining or adjusting the transmembrane voltage.
Chinese hamster ovary (CHO) cells stably expressing WT-CFTR channels were used for the IonWorks Quattro experiments. Cells were maintained at 37° C. in 5% v/v CO2 at 100% humidity in MEM alpha medium supplemented with 10% (v/v) FCS, 100 U/mL Penicillin/Streptomycin, and 100 μg/L methotrexate. For experiments, cells were grown in 225 cm^2 tissue culture flasks until almost confluent. Cells were removed from the flask using trypsin-EDTA and resuspended in extracellular recording solution for immediate experimentation.
Cells, at a density of 1.5-2 million per mL, were placed on the Quattro system, added to the planar patch plate and seals allowed to establish for 5-10 mins. […] CFTR was activated by the addition of 10 μM forskolin to each of the 384 wells of the patch plate. […] Test compounds, diluted from 10 mM stocks in DMSO in extracellular solution were then added to the patch plate and were incubated for a further 10 min. […] This was determined at both −100 mV and +100 mV which represents the inward and outward current respectively.

T1 sequence (P13569 whole entry): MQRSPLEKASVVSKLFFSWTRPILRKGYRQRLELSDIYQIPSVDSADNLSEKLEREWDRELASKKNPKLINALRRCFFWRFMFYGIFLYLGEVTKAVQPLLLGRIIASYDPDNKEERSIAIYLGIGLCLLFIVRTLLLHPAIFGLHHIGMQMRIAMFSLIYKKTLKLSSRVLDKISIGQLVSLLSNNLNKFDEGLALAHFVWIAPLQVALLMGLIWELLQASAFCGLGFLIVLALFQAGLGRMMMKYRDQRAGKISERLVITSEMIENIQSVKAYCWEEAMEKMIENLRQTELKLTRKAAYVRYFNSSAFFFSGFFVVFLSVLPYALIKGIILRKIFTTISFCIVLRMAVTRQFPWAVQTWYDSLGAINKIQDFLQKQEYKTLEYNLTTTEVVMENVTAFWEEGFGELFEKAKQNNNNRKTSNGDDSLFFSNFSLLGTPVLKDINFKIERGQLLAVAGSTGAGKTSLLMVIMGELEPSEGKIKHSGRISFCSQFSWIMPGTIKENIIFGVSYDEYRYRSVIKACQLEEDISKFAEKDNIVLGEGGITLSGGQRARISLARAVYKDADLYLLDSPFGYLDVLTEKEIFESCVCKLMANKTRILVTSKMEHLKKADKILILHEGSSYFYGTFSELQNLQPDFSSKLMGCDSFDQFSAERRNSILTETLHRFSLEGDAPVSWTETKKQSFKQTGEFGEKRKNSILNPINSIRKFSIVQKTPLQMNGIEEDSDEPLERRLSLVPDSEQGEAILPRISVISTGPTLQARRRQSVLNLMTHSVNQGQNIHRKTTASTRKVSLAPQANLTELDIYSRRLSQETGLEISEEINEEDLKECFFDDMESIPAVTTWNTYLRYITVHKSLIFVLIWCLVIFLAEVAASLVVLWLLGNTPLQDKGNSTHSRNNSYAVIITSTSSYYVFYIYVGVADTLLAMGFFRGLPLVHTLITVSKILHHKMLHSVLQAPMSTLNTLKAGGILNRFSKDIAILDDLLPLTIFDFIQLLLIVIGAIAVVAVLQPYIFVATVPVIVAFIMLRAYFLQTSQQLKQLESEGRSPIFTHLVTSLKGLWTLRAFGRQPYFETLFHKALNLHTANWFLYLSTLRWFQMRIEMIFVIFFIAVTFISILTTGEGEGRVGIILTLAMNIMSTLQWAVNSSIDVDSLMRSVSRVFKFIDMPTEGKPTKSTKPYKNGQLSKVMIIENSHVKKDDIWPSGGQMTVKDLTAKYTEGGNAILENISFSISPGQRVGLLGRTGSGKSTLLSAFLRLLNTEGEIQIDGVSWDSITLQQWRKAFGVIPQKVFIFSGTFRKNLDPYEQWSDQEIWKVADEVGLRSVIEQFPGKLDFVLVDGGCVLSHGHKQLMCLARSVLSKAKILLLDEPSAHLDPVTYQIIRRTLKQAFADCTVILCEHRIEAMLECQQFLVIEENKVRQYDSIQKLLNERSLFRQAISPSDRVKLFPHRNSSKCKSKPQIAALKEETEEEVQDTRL

Q: How did the IC50 turn out when Cc1csc(-c2c3c(=O)n(C)c(=O)n(C)c3c3n2CCC[C@H]3c2nc(Cl)cs2)n1 (single isomer, unassigned) [Example 13.2a, 10-(4-chlorothiazol-2-yl)-1,3-dimethyl-5-(4-methylthiazol-2-yl)-7,8,9,10-tetrahydropyrimido[4,5-a]indolizine-2,4(1H,3H)-dione] was run?
A: 0.05 µM
